Reference: US12527782B2, “Use of hexokinase 2/mitochondria-detaching compounds for treating hexokinase-2 (HK2)-expressing cancers” (Vidac Pharma Ltd., priority 2016, dated 2026)

Experiments:
[1] = tested on: Leukemia (BCLL) LEXFCM EM-2; experiment: CFA, LEXFCM EM-2; type: cell-based, human; conditions: Cell line/CFA
Experimental: (§1) CFA was performed by Charles River Laboratories (Freiburg, Germany) in 96-well plate format according to a modified two-layer soft agar assay. The origin of the tumor xenografts has been described (Fiebig et al. 1989, incorporated herein by reference). The list of tumors used in this study is detailed in Table 1.

[2] = tested on: HT-297.T Actinic keratosis cells; experiment: XTT cell viability assay, HT-297.T; type: cell-based, human; conditions: Actinic keratosis HT-297.T; Cell line/XTT; 72 hr
Experimental: (§2) A431 (human skin SCC), HT-297.T (human AK), and HaCaT transformed normal keratinocyte cell lines were from ATCC (Manassas, VA) and were maintained in DMEM supplemented with 10% FCS, 4 mM L-Gln, 1 mM sodium pyruvate, 100 U/mL penicillin, 1 μg/mL streptomycin. Human HK1 and HK2 plasmids were purchased from Addgene (Cambridge, MA) and were purified from E. Coli. VDAC1 was purified from sheep liver mitochondria as described (Arbel et al. 2012, incorporated herein by reference). Human skin tissue microarray (SK208 and SK 805) were purchased from US Biomax Inc. (Rockville, MD).
For XTT assays, cells were plated in 96-well plates (5,000 cells per well) for 24 hours. Cells were then incubated with different concentrations of Formula C in triplicates for 72 hr in DMEM supplemented with 0.5% FCS and 5 mM Glucose. Cell viability was evaluated using 2,3-bis-(2-methoxy-4-nitro-5-sulfophenyl)-2H-tetrazolium-5-carboxanilide (XTT)-based colorimetric assay kit (Biological Industries Ltd., Kibbutz Beit-Haemek, Israel). The optical density was measured by an Infinite 200 ELISA reader at 450 nm and reference was measured at 630 nm (Tecan, Männedorf, Switzerland).

Colon CXF 280 = experiment: CFA, CXF 280; type: cell-based, human; conditions: PDX/CFA
Experimental: as §1

Lung (SCLC) LXFS 2156 = experiment: CFA, LXFS 2156; type: cell-based, human; conditions: PDX/CFA
Experimental: as §1

Lung (SCLC) LXFS 573 = experiment: CFA, LXFS 573; type: cell-based, human; conditions: PDX/CFA
Experimental: as §1

VDAC1/HK2 complex = target: T1, VDAC1/HK2 complex (Homo sapiens, UniProt P52789); experiment: Microscale Thermophoresis (MST) dissociation of VDAC1/HK2 complex; type: binding; conditions: cell-free MST; HK2 pre-incubated with 1.5 μM VDAC1
T1 construct: host or cells: E. coli (HK2); sheep liver mitochondria (VDAC1)
Experimental: as §2
Studies were conducted on Nanotemper Monolith NT.115 (Munich, Germany). HK1 and HK2 were labeled using Monolith™ NT.115 Protein Labeling Kit BLUE-NHS. As a preliminary study to form the VDAC1-HK complexes, various concentrations of VDAC1 were added to 67 nM HK1 or 71 nM HK2. The preferred VDAC1 concentration was determined to be 1.5 μM. For dissociation studies, HKs were pre-incubated with VDAC1 for 10 minutes and various concentrations of Formula C were added for an additional 10 minutes. MST default parameters were used and analysis was with Nanotemper analysis software. […]
The activity of Formula C in a cell-free assay was evaluated using Microscale Thermophoresis (MST) analysis, which is based on altered movement of a protein in a temperature gradient when bound to other molecules. […]

[3] = tested on: Leukemia (AML) LEXFAM KG-1a; experiment: CFA, LEXFAM KG-1a; type: cell-based, human; conditions: Cell line/CFA
Experimental: as §1

A431 cells [4] = experiment: Apoptosis: cleaved caspase-3 ELISA, A431 cells; type: cell-based, human; conditions: within 6 hours of treatment
Experimental: Apoptosis induction was determined by semi-quantification of cytochrome C levels in the mitochondrial fraction analyzed by WB, following 2 hours of treatment with Formula C in A431 cells. Cleaved caspase-3 levels were analyzed following 6 hours of Formula C treatment in A431 cells, using PathScan® Cleaved Caspase-3 Sandwich ELISA kit (CST, Danvers, MA).

A431 cells [5] = experiment: Cellular ATP determination (CellTiter-Glo) in A431 cells; type: cell-based, human; conditions: 2-hour incubation
Experimental: Cellular ATP levels were determined using CellTiter-Glo® Luminescent Cell Viability Assay kit (Promega, Madison, WI) following 2 hours of treatment at 37° C.

[6] = tested on: Leukemia (AML) LEXFAM NOMO-1; experiment: CFA, LEXFAM NOMO-1; type: cell-based, human; conditions: Cell line/CFA
Experimental: as §1

Skin SCC SXFS 627 = experiment: CFA, SXFS 627; type: cell-based, human; conditions: PDX/CFA
Experimental: as §1

T1 sequence (P52789 whole entry, one chain of several): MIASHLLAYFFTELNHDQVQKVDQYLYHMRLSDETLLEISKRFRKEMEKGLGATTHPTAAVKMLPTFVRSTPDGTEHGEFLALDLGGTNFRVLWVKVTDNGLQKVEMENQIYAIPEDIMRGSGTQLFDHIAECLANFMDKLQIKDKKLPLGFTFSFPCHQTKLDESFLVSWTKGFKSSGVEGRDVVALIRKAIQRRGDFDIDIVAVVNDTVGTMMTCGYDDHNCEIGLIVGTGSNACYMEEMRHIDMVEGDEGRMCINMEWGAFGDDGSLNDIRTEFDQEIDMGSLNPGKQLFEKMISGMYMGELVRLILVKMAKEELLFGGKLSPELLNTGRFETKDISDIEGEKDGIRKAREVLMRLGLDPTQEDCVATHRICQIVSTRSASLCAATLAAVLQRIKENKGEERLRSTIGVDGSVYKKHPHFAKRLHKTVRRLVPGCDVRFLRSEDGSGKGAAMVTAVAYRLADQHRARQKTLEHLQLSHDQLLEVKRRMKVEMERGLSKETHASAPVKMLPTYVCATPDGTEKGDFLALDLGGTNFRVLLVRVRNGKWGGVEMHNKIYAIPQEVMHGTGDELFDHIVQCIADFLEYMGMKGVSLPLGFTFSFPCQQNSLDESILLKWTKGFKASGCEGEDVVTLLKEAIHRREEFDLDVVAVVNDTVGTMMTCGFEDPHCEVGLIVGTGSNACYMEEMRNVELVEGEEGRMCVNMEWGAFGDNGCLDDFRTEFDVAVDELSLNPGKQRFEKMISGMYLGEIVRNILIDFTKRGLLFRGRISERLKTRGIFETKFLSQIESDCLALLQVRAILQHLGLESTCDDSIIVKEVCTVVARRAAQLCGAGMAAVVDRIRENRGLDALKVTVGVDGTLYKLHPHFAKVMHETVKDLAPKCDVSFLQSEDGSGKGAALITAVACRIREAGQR

## CC/C=C\CC1C(=O)CCC1CC(=O)Oc1cccc2cccnc12 (centres unmarked) [Formula C]
[1]
  IC50: 2780 nM
[2]
  IC50: 228 nM
Colon CXF 280
  IC50: 5.44 µM
Lung (SCLC) LXFS 2156
  IC50: 3.56 µM
Lung (SCLC) LXFS 573
  IC50: 1940 nM
VDAC1/HK2 complex
  IC50: 92 nM
[3]
  IC50: 1920 nM
A431 cells [4]
  cellular levels of cleaved caspase-3: increase in cellular levels of cleaved caspase-3
A431 cells [5]
  reduction of cellular ATP levels: ≤ 50%
[6]
  IC50: 1420 nM
Skin SCC SXFS 627
  IC50: 1560 nM
